Measured values taken from article PMC9516332 (Frontiers in Oncology, 2022).
Where two headings read alike, the source gives them in different places.

How the values were obtained:
[1] = target: T1, panel of 255 wild-type kinases (Homo sapiens, UniProt Q96PF2); experiment: Kinase panel profiling at 1 µmol/L (MSA or IMAP), percentage inhibition; type: biochemical; details: kinase TSSK2; 1 µmol/L single concentration; read-out: %-inhibition at 1 µmol/L, TSSK2
T1 sequence (Q96PF2 1-358): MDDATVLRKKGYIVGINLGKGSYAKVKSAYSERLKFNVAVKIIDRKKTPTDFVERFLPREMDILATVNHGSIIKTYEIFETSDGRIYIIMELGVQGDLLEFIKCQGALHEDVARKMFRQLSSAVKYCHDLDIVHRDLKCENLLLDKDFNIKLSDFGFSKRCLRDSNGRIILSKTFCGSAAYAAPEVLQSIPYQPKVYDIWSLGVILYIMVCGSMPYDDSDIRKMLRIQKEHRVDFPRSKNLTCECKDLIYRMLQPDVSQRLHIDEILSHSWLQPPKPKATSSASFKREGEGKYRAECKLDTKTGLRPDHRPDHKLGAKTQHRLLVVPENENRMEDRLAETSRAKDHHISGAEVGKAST

[2] = target: panel of 255 wild-type kinases (Homo sapiens, UniProt P31749); experiment: as above; type: biochemical; details: AKT1 kinase assay; 1 µmol/L single concentration; read-out: %-inhibition AKT1
[3] = target: panel of 255 wild-type kinases (Homo sapiens, UniProt P08581); experiment: as above; type: biochemical; details: MET; 1 µmol/L single concentration
[4] = target: panel of 255 wild-type kinases (Homo sapiens, UniProt Q9Y463); experiment: as above; type: biochemical; details: kinase DYRK1B; 1 µmol/L single concentration; read-out: %-inhibition at 1 µmol/L, DYRK1B
134 cancer cell lines = experiment: Cell viability assay (ATPlite, 72 hours), IC50 on cancer cell line panel

inhibition at 1 µM [1]: -6%
inhibition at 1 µM [2]: -6.35%
inhibition at 1 µM [3]: -1%
inhibition at 1 µM [4]: 8%
IC50 (134 cancer cell lines; HEC-6, read-out: IC50 in cell proliferation assay, HEC-6 cell line (EGFR p.A289V)): 7.66 µM
IC50 (134 cancer cell lines; Homo sapiens, 769-P, read-out: IC50 in cell proliferation assay, cell line 769-P): 14.3 µM
IC50 (134 cancer cell lines; Homo sapiens, 786-0, read-out: IC50 in cell proliferation assay, cell line 786-O): > 31.6 µM
IC50 (134 cancer cell lines; Homo sapiens, A 172, read-out: IC50 in cell proliferation assay, cell line A-172): 19.6 µM
IC50 (134 cancer cell lines; Homo sapiens, A204, read-out: IC50 in cell proliferation assay, cell line A-204): 0.247 µM
IC50 (134 cancer cell lines; Homo sapiens, A498, read-out: IC50 in cell proliferation assay, cell line A-498): 14.4 µM
IC50 (134 cancer cell lines; Homo sapiens, A549, read-out: IC50 in cell proliferation assay, cell line A-549): 9.89 µM
IC50 (134 cancer cell lines; Homo sapiens, A704, read-out: IC50 in cell proliferation assay, cell line A-704): 27 µM
IC50 (134 cancer cell lines; Homo sapiens, A-375, read-out: IC50 in cell proliferation assay, cell line A-375 (BRAF p.V600E)): 14.9 µM
IC50 (134 cancer cell lines; Homo sapiens, A-427, read-out: IC50 in cell proliferation assay, cell line A-427): 0.074 µM
IC50 (134 cancer cell lines; Homo sapiens, ACHN, read-out: IC50 in cell proliferation assay, cell line ACHN): 9.68 µM
IC50 (134 cancer cell lines; Homo sapiens, AN3-CA, read-out: IC50 in cell proliferation assay, cell line AN3-CA (FGFR2 p.N549K)): 0.697 µM
IC50 (134 cancer cell lines; Homo sapiens, ASPC1, read-out: IC50 in cell proliferation assay, cell line AsPC-1): 8.97 µM
IC50 (134 cancer cell lines; Homo sapiens, AU565, read-out: IC50 in cell proliferation assay, cell line AU565 (ERBB2 amplification)): 1.56 µM
IC50 (134 cancer cell lines; Homo sapiens, BT-20, read-out: IC50 in cell proliferation assay, cell line BT-20): 3.55 µM
IC50 (134 cancer cell lines; Homo sapiens, BT-474, read-out: IC50 in cell proliferation assay, cell line BT-474 (ERBB2 amplification)): 3.2 µM
IC50 (134 cancer cell lines; Homo sapiens, BT-549, read-out: IC50 in cell proliferation assay, cell line BT-549): 16.6 µM
IC50 (134 cancer cell lines; Homo sapiens, BXPC-3, read-out: IC50 in cell proliferation assay, cell line BxPC-3): 5.88 µM
IC50 (134 cancer cell lines; Homo sapiens, C-33-A, read-out: IC50 in cell proliferation assay, cell line C-33 A): 25.1 µM
IC50 (134 cancer cell lines; Homo sapiens, CAL-27, read-out: IC50 in cell proliferation assay, cell line CAL-27): 2.31 µM
IC50 (134 cancer cell lines; Homo sapiens, CCF-STTG1, read-out: IC50 in cell proliferation assay, cell line CCF-STTG1): > 31.6 µM
IC50 (134 cancer cell lines; Homo sapiens, CCRF-CEM, read-out: IC50 in cell proliferation assay, cell line CCRF-CEM): 4.28 µM
IC50 (134 cancer cell lines; Homo sapiens, COLO 205, read-out: IC50 in cell proliferation assay, cell line COLO 205 (BRAF p.V600E)): 14.1 µM
IC50 (134 cancer cell lines; Homo sapiens, COLO-829, read-out: IC50 in cell proliferation assay, cell line COLO 829 (BRAF p.V600E)): > 31.6 µM
IC50 (134 cancer cell lines; Homo sapiens, DLD-1, read-out: IC50 in cell proliferation assay, cell line DLD-1): 0.676 µM
IC50 (134 cancer cell lines; Homo sapiens, DU-4475, read-out: IC50 in cell proliferation assay, cell line DU4475 (BRAF p.V600E)): 0.628 µM
IC50 (134 cancer cell lines; Homo sapiens, Daoy, read-out: IC50 in cell proliferation assay, cell line Daoy): 9.36 µM
IC50 (134 cancer cell lines; Homo sapiens, DoTc2-4510, read-out: IC50 in cell proliferation assay, cell line DoTc2 4510): 1.3 µM
IC50 (134 cancer cell lines; Homo sapiens, EOL1, read-out: IC50 in cell proliferation assay, cell line EoL-1 (FIP1L1-PDGFRA)): 0.335 µM
IC50 (134 cancer cell lines; Homo sapiens, FaDu, read-out: IC50 in cell proliferation assay, cell line FaDu): 1.71 µM
IC50 (134 cancer cell lines; Homo sapiens, G-361, read-out: IC50 in cell proliferation assay, cell line G-361 (BRAF p.V600E)): 16.6 µM
IC50 (134 cancer cell lines; Homo sapiens, HCC827, read-out: IC50 in cell proliferation assay, cell line HCC827 (EGFR exon19del)): 5.4 µM
IC50 (134 cancer cell lines; Homo sapiens, HCC4006, read-out: IC50 in cell proliferation assay, cell line HCC4006 (EGFR exon19del)): 4.56 µM
IC50 (134 cancer cell lines; Homo sapiens, HCT-15, read-out: IC50 in cell proliferation assay, cell line HCT 15): 0.838 µM
IC50 (134 cancer cell lines; Homo sapiens, HCT-116, read-out: IC50 in cell proliferation assay, cell line HCT 116): 6.31 µM
IC50 (134 cancer cell lines; Homo sapiens, HEC-1, read-out: IC50 in cell proliferation assay, HEC-1 cell line): 5.84 µM
IC50 (134 cancer cell lines; Homo sapiens, HEC-1B, read-out: IC50 in cell proliferation assay, HEC-1-B cell line (EGFR p.A864V)): 0.943 µM
IC50 (134 cancer cell lines; Homo sapiens, HL-60, read-out: IC50 in cell proliferation assay, HL-60 cell line): 1.69 µM
IC50 (134 cancer cell lines; Homo sapiens, HT, read-out: IC50 in cell proliferation assay, HT cell line): 14.3 µM
IC50 (134 cancer cell lines; Homo sapiens, HT-1080, read-out: IC50 in cell proliferation assay, HT-1080 cell line): 0.314 µM
IC50 (134 cancer cell lines; Homo sapiens, Hs746T, read-out: IC50 in cell proliferation assay, Hs 746.T cell line (MET exon14skip + amplification)): 5.75 µM
IC50 (134 cancer cell lines; Homo sapiens, Hs-578T, read-out: IC50 in cell proliferation assay, Hs 578T cell line): 8.51 µM
IC50 (134 cancer cell lines; Homo sapiens, HuTu80, read-out: IC50 in cell proliferation assay, HuTu 80 cell line): 1.09 µM
IC50 (134 cancer cell lines; Homo sapiens, J82, read-out: IC50 in cell proliferation assay, J82 cell line): > 31.6 µM
IC50 (134 cancer cell lines; Homo sapiens, Jurkat E6.1, read-out: IC50 in cell proliferation assay, Jurkat E6.1 cell line): 12.9 µM
IC50 (134 cancer cell lines; Homo sapiens, K562, read-out: IC50 in cell proliferation assay, K-562 cell line): > 31.6 µM
IC50 (134 cancer cell lines; Homo sapiens, KATO III, read-out: IC50 in cell proliferation assay, KATO III cell line (FGFR2 amplification)): 2.79 µM
IC50 (134 cancer cell lines; Homo sapiens, KG-1, read-out: IC50 in cell proliferation assay, KG-1 cell line (FGFR1OP2-FGFR1)): 27.7 µM
IC50 (134 cancer cell lines; Homo sapiens, KLE, read-out: IC50 in cell proliferation assay, KLE cell line): 5.79 µM
IC50 (134 cancer cell lines; Homo sapiens, KMS-11, read-out: IC50 in cell proliferation assay, KMS-11 cell line (FGFR3 p.Y373C)): 1.53 µM
IC50 (134 cancer cell lines; Homo sapiens, KU812, read-out: IC50 in cell proliferation assay, Ku812 cell line): 0.075 µM
IC50 (134 cancer cell lines; Homo sapiens, Kasumi 1, read-out: IC50 in cell proliferation assay, Kasumi-1 cell line (KIT p.N822K)): 1.9 µM
IC50 (134 cancer cell lines; Homo sapiens, LC-2-ad, read-out: IC50 in cell proliferation assay, LC-2/ad cell line (CCDC6-RET)): 4.5 µM
IC50 (134 cancer cell lines; Homo sapiens, LNCaP-Clone-FGC, read-out: IC50 in cell proliferation assay, LNCaP clone FGC cell line): > 31.6 µM
IC50 (134 cancer cell lines; Homo sapiens, LS174T, read-out: IC50 in cell proliferation assay, LS174T cell line): 1.9 µM
IC50 (134 cancer cell lines; Homo sapiens, LS-411N, read-out: IC50 in cell proliferation assay, LS411N cell line (BRAF p.V600E)): 17.4 µM
IC50 (134 cancer cell lines; Homo sapiens, LoVo, read-out: IC50 in cell proliferation assay, LoVo cell line): 20.5 µM
IC50 (134 cancer cell lines; Homo sapiens, MCF7, read-out: IC50 in cell proliferation assay, MCF-7 cell line): 2.79 µM
IC50 (134 cancer cell lines; Homo sapiens, MDA-MB-231, read-out: IC50 in cell proliferation assay, MDA-MB-231 cell line): > 31.6 µM
IC50 (134 cancer cell lines; Homo sapiens, MDA-MB-453, read-out: IC50 in cell proliferation assay, MDA-MB-453 cell line): 6.03 µM
IC50 (134 cancer cell lines; Homo sapiens, MDA-MB-468, read-out: IC50 in cell proliferation assay, MDA-MB-468 cell line): 9.8 µM
IC50 (134 cancer cell lines; Homo sapiens, MG-63, read-out: IC50 in cell proliferation assay, MG-63 cell line): 3.87 µM
IC50 (134 cancer cell lines; Homo sapiens, MIA PaCa-2, read-out: IC50 in cell proliferation assay, MIA PaCa-2 cell line): 10.7 µM
IC50 (134 cancer cell lines; Homo sapiens, MKN-45, read-out: IC50 in cell proliferation assay, MKN45 cell line (MET amplification)): 1.23 µM
IC50 (134 cancer cell lines; Homo sapiens, MOLM-13, read-out: IC50 in cell proliferation assay, MOLM-13 cell line (FLT3 ITD)): 3.48 µM
SMILES: Cc1nc(NC(=O)N2CCC[C@H]2C(N)=O)sc1-c1ccnc(C(C)(C)C(F)(F)F)c1 [alpelisib]
